Results reported in ChEMBL document CHEMBL5390201, “The Natural Alkaloid (-)-N-Hydroxyapiosporamide Suppresses Colorectal Tumor Progression as an NF-κB Pathway Inhibitor by Targeting the TAK1-TRAF6 Complex” (J Nat Prod, 2023).
The source made the active and inactive calls. The calls are words filed in the database; no cut-off is given here.

Experiments:
[1] = tested on: HT-29; assay: Induction of cell cycle arrest in human HT-29 cells assessed as accumulation of cells at G2/M phase at 5 uM by RNase/PI staining based flow cytometry analysis (reference value: 9.93 %); format: functional
[2] = tested on: Mus musculus; assay: In vivo inhibition of NFkappaB activation in AOM/DSS-induced inflammatory bowel disease BALB/c mouse model assessed as inhibition of serum IL-8 production at 5 to 10 mg/kg, ip pretreated with AOM for 7 days further replaced with DSS for 7 days and repeated for 2 times followed by every 2 days compound treatment for […] starting from day 50 by ELISA; format: functional, organism-based; conditions: dose 5-10 mg/kg, time 21.0 day
[3] = tested on: HT-29; assay: Antitumor activity against human HT-29 cells xenografted in athymic nude BALB/c mouse assessed as induction of autophagy by measuring increase in LC3B expression in tumor at 15 mg/kg, ip administered every other day and measured after 14 days by immunohistochemistry analysis; format: functional, organism-based; conditions: time 14.0 day
[4] = target: T1, Nuclear factor NF-kappa-B complex (Homo sapiens) (UniProt Q00653+P19838+Q04206); assay: Inhibition of TNF-alpha induced NFkappaB activation in human HCT-116 cells assessed as inhibition of IkappaBalpha phosphorylation at 1 to 10 uM pretreated for 24 hrs followed by TNFalpha stimulation for 10 mins by Western blot analysis; format: cell-based; conditions: dose 1-10 µM, time 1450.0 min
[5] = tested on: HCT-116; assay: Induction of apoptosis in human HCT-116 cells assessed as late apoptotic cells at 5 uM incubated for 24 hrs by Annexin V-FITC/PI staining based flow cytometric analysis (reference value: 2.9 %); format: functional
[6] = tested on: Cell membrane; assay: Disruption of mitochondrial membrane potential in human HCT-116 cells at upto 10 uM measured after 24 hrs by JC-1 staining based fluorescence microscopy; format: subcellular
[7] = tested on: HT-29; assay: Induction of apoptosis in human HT-29 cells assessed as late apoptotic cells at 1 uM incubated for 24 hrs by Annexin V-FITC/PI staining based flow cytometric analysis (reference value: 1.56 %); format: functional
[8] = tested on: Mus musculus; assay: In vivo inhibition of NFkappaB activation in athymic BALB/c mouse xenografted with human HCT-116 cells assessed as reduction in A20 gene expression in tumor at 15 mg/kg, ip administered every other day and measured after 14 days by qRT-PCR analysis; format: functional, organism-based; conditions: time 14.0 day
[9] = tested on: HT-29; assay: Induction of autophagic flux in human HT-29 cells assessed as increase in LC3 protein expression preincubated with chloroquine for 1 hr followed by compound addition and measured after 24 hrs by Western blot analysis; format: functional, cell-based
[10] = tested on: HT-29; assay: Induction of cell cycle arrest in human HT-29 cells assessed as decrease in P-cdc2 protein expression upto 10 uM incubated for 24 hrs by Western blot analysis; format: functional, cell-based
[11] = tested on: HT-29; assay: Induction of apoptosis in human HT-29 cells assessed as viable cells at 10 uM incubated for 24 hrs by Annexin V-FITC/PI staining based flow cytometric analysis (reference value: 93 %); format: functional; conditions: read-out: Activity
[12] = tested on: HCT-116; assay: Induction of apoptosis in human HCT-116 cells assessed as viable cells at 0.5 uM incubated for 24 hrs by Annexin V-FITC/PI staining based flow cytometric analysis (reference value: 88.8%); format: functional; conditions: read-out: Activity
[13] = Half life in Sprague-Dawley rat at 10 mg/kg, ip measured for 24 hrs by HPLC-MS/MS analysis; format: ADME, organism-based; conditions: in vivo
[14] = tested on: HT-29; assay: Induction of autophagic flux in human HT-29 cells assessed as increase in LC3I to LC3II conversion preincubated with chloroquine for 1 hr followed by compound addition and measured after 24 hrs by Western blot analysis; format: functional, cell-based
[15] = Toxicity in athymic nude BALB/c mouse xenografted with human HT-29 cells assessed as pathological changes in liver at 5 to 15 mg/kg, ip administered every other day and measured after 14 days by hematoxylin and eosin staining-based microscopic analysis; format: organism-based; conditions: in vivo, 336 h, dose 5-15 mg/kg, time 14 day
[16] = tested on: HT-29; assay: Induction of apoptosis in human HT-29 cells assessed as early apoptotic cells at 5 uM incubated for 24 hrs by Annexin V-FITC/PI staining based flow cytometric analysis (reference value: 4.39 %); format: functional
[17] = tested on: HT-29; assay: Induction of cell cycle arrest in human HT-29 cells assessed as decrease in CDK4 protein expression upto 10 uM incubated for 24 hrs by Western blot analysis; format: functional, cell-based
[18] = tested on: HCT-116; assay: Induction of apoptosis in human HCT-116 cells assessed as late apoptotic cells at 10 uM incubated for 24 hrs by Annexin V-FITC/PI staining based flow cytometric analysis (reference value: 2.9 %); format: functional
[19] = tested on: HCT-116; assay: Induction of cell cycle arrest in human HCT-116 cells assessed as decrease in cyclin B protein expression upto 10 uM incubated for 24 hrs by Western blot analysis; format: functional, cell-based
[20] = tested on: HT-29; assay: Induction of apoptosis in human HT-29 cells assessed as late apoptotic cells at 0.5 uM incubated for 24 hrs by Annexin V-FITC/PI staining based flow cytometric analysis (reference value: 1.56 %); format: functional
[21] = tested on: HT-29; assay: Inhibition of colony formation in human HT-29 cells at 0.25 to 10 uM incubated for 24 hrs and measured after 14 days by crystal violet staining based assay; format: functional, cell-based; conditions: dose 0.25-10 µM, time 14.0 day
[22] = tested on: HCT-116; assay: Induction of cell cycle arrest in human HCT-116 cells assessed as accumulation of cells at G0/G1 phase at 10 uM by RNase/PI staining based flow cytometry analysis (reference value: 33.08 %); format: functional
[23] = tested on: HT-29; assay: Induction of apoptosis in human HT-29 cells assessed as early apoptotic cells at 5 uM preincubated with Z-VAD-FMK for 1 hr followed by compound addition and measured after 24 hrs by Annexin V-FITC/PI staining based flow cytometric analysis (reference value: 4.05 %); format: functional
[24] = tested on: Mus musculus; assay: In vivo inhibition of NFkappaB activation in athymic BALB/c mouse xenografted with human HT-29 cells assessed as reduction in A20 gene expression in tumor at 5 to 15 mg/kg, ip administered every other day and measured after 14 days by qRT-PCR analysis; format: functional, organism-based; conditions: dose 5-15 mg/kg, time 14.0 day
[25] = Toxicity in athymic nude BALB/c mouse xenografted with human HCT-116 cells assessed as pathological changes in heart at 5 to 15 mg/kg, ip administered every other day and measured after 14 days by hematoxylin and eosin staining-based microscopic analysis; format: organism-based; conditions: in vivo, 336 h, dose 5-15 mg/kg, time 14 day
[26] = target: T1, Nuclear factor NF-kappa-B complex (Homo sapiens); assay: Inhibition of TNF-alpha induced NFkappaB activation in human HT-29 cells assessed as inhibition of IL-8 production at 2 uM pretreated for 24 hrs followed by TNFalpha stimulation for 4 hrs by ELISA; format: cell-based; conditions: time 28.0 hrs
[27] = tested on: HCT-116; assay: Induction of cell cycle arrest in human HCT-116 cells assessed as decrease in P-cdc2 protein expression upto 10 uM incubated for 24 hrs by Western blot analysis; format: functional, cell-based
[28] = tested on: HT-29; assay: Induction of apoptosis in human HT-29 cells assessed as early apoptotic cells at 0.5 uM incubated for 24 hrs by Annexin V-FITC/PI staining based flow cytometric analysis (reference value: 5.29 %); format: functional
[29] = tested on: HCT-116; assay: Inhibition of colony formation in human HCT-116 cells at 0.25 to 10 uM incubated for 24 hrs and measured after 14 days by crystal violet staining based assay; format: functional, cell-based; conditions: dose 0.25-10 µM, time 14.0 day
[30] = tested on: HT-29; assay: Induction of apoptosis in human HT-29 cells assessed as inhibition of PARP protein expression measured for 24 hrs by Western blot analysis; format: functional, cell-based; conditions: dose 0-10 µM

T1 sequence (P19838 whole entry, looked up): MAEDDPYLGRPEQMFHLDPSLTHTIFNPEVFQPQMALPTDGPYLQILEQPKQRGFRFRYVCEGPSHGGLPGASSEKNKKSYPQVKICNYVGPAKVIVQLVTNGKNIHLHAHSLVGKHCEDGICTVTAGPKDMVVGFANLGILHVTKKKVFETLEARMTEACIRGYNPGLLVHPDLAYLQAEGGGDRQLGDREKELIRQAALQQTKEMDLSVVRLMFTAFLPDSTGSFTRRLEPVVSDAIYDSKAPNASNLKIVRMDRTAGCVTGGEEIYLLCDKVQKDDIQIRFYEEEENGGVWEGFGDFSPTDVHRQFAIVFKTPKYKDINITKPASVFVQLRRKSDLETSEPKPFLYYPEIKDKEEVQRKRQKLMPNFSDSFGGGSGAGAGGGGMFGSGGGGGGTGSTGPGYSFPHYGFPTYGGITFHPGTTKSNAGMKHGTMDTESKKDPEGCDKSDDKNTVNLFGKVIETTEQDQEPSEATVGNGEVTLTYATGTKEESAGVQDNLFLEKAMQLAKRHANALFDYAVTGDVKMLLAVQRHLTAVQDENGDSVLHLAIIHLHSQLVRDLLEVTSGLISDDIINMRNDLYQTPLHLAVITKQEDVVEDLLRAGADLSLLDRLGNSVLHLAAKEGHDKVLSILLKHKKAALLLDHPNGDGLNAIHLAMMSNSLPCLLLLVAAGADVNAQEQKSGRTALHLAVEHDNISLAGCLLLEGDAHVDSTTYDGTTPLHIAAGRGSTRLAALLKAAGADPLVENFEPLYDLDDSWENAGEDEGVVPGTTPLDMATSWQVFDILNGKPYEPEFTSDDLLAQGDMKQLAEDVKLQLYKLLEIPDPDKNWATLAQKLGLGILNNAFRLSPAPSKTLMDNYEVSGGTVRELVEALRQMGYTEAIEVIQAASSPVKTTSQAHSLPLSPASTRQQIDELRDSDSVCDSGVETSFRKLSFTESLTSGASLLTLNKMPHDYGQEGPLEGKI
T1 sequence (Q00653 whole entry, looked up): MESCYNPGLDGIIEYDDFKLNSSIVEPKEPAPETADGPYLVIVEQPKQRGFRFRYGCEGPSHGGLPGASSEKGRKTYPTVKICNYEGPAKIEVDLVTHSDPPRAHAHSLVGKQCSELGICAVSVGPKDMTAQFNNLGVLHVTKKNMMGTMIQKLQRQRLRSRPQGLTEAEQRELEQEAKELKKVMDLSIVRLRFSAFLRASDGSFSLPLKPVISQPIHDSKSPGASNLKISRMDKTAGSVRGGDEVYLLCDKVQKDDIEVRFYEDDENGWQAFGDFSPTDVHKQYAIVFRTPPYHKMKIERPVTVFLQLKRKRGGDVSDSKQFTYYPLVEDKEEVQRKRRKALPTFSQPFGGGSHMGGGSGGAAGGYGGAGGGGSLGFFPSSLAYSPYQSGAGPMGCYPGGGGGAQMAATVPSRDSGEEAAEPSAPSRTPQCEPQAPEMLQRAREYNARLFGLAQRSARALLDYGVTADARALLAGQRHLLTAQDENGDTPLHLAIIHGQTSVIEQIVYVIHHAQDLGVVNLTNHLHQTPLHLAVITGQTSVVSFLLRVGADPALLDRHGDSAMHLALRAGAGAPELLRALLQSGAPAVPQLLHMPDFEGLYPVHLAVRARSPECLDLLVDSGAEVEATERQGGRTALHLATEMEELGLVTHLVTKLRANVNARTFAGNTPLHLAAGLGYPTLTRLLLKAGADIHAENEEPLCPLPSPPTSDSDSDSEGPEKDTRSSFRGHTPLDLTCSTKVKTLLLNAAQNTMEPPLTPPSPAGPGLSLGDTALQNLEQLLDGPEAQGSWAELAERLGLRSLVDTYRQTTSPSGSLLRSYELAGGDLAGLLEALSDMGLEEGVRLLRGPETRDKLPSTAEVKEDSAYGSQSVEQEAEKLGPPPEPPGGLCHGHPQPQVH
T1 sequence (Q04206 whole entry, looked up): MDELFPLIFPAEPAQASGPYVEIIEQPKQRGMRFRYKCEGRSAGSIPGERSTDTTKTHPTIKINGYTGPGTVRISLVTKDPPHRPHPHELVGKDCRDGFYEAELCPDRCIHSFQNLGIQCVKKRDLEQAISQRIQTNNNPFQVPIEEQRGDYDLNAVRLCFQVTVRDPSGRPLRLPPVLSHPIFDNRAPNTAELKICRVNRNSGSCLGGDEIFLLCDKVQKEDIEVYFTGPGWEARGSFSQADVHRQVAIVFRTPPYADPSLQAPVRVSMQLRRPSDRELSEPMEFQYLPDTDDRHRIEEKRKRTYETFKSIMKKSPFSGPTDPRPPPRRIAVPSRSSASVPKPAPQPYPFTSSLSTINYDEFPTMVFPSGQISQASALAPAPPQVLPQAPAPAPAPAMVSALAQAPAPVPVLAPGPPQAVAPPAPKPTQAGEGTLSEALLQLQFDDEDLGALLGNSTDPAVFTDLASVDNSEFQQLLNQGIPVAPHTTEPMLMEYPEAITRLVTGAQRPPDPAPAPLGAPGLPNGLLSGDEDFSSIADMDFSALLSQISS

In the case of C[C@@H]1CC[C@H]2[C@H](C(=O)c3c(O)c([C@@]4(O)CC[C@@H](O)[C@H]5O[C@H]54)cn(O)c3=O)[C@H](C)C=C[C@@H]2C1, the Activity [1] is reported as 0.17%, the inhibition [2] is reported as “Active” and the Activity [3] is reported as “Active”. For the same compound, the inhibition [4] was “Active”, the Activity [5] was 64.4% and the Activity [6] was “Active”. The Activity [7] was 7.39%, the inhibition [8] was “Active” and the Activity [9] was “Active”. For the same compound, the Activity [10] was “Active”, the viability at 10 µM [11] was 36.8% and the viability at 0.5 µM [12] was 51.7%. For the same compound, the half-life [13] was 3.73 h, the Activity [14] was “Active” and the Activity [15] was “Non-Toxic”. For the same compound, the Activity [16] was 28.3%, the Activity [17] was “Active” and the Activity [18] was 75%. For the same compound, the Activity [19] was “Active”, the Activity [20] was 6.72% and the inhibition [21] was “Active”. The Activity [22] was 46.75%, the Activity [23] was 17.1% and the inhibition [24] was “Active”. The Activity [25] was “Non-Toxic”, the inhibition [26] was “Active” and the Activity [27] was “Active”. The Activity [28] was 37.6%, the inhibition [29] was “Active” and the Activity [30] was “Dose-Dependent Effect”.
